We go through two substances from US7517644B1, “Method and compositions for cellular reprogramming” (priority 1991, dated 2009).

The test system of data set [1] is drug-sensitive (parent) cancer cell lines. As to the kind of experiment: drug sensitization of drug-sensitive (parent) cancer cell lines (Table XVII). The class given is cell-based, human. The text has this: The enhanced reduction in P-glycoprotein expression due to the combined antisense and aptameric-like effects likely causes the associated reduction in cell proliferation. It has been previously shown that treating P-glycoprotein-expressing cells with monoclonal antibodies capable of binding to and blocking P-glycoprotein function leads to a substantial reduction in the proliferation of the treated cells. […] The term “aptameric-like” is used because the effect seen is seen with some sequences but not others (aptameric); aptameric-like effects are substantially more common among ODN sequences than are the usual aptameric effects. […] In general, this situation in which the antisense and an aptameric-like effect of an ODN both act to reduce expression of the same gene (e.g., MDR1) can be expected to be a very uncommon finding among antisense ODN therapeutics directed to other gene targets. […]

In data set [2] the test system is ovarian carcinoma. Nature of the data set: anticancer effect of junD ODN on solid tumors. The class given is cell-based.
In data set [3] the test system is AML blast cells freshly obtained from patients. Nature of the data set: junD ODN on fresh AML blasts: suspension culture viable counts and blast colony assay. Type of data set: cell-based, human. To be noted: 7 days incubation, suspension culture viable cell counts. As for the experimental part:
In the initial tests, the H(1)junD oligo or a control ODN were incubated with AML blast cells for seven days. The blast cells were freshly obtained from patients with AML and were cultured and evaluated for ODN effects as described by Bayever et al.(Leukemia and Lymphoma 12: 223-231, 1994). In brief, after the incubation with ODNs, the blast cells were then washed, and adjusted to 10^5 cells per ml and continued in culture for several more days. Viable cell counts were performed every 2-3 days on suspension cultures and oligo-treated blast cells were plated in the “blast colony assay” to determine the effects of the ODNs on the leukemic stem cells.

In data set [4] the test system is malignant cell lines.
Data set [5] has as its system 8226/Dox cells. Nature of the data set: sensitization of P-glycoprotein-expressing drug-resistant cells to vincristine (Table XVII). The class given is cell-based, human. The conditions noted are these: for Fold increase in Drug Sensitivity: 8226/Dox6 cells, versus media control; for sensitization to vincristine: P-glycoprotein-expressing drug-resistant 8226/Dox. As for the experimental part: To determine relative activity among the various MDR1 antisense ODNs, they were incubated at several different ODN concentrations in cell culture medium with the human multiple myeloma cell lines 8226/Dox4 or 8226/Dox6 (gifts of Dr. William Dalton, University of Arizona Cancer Center, Tucson) (Dalton et al., Cancer Res. 46: 5125, 1986). Specifically, the human myeloma cells were incubated with the antisense ODNs for four (4) days, in a humidified, 5% CO2 atmosphere containing a reduced oxygen level of 5%, maintained by purging the culture incubator with nitrogen gas in place of ambient room air. Addition of an antioxidant to the cultures during exposure of the cells to the ODN further reduces the effects of the free radicals induced by the ODNs on cells (this effect can include increased expression of MDR1). The cell cultures were then incubated with a chemotherapeutic anti-cancer agent overnight (15-18 hrs), after which the cell cultures were washed repeatedly and then seeded into 96-well microtest plates to permit quantitative analysis of their growth. Tritiated-thymidine was added to these cultures for 18-hrs prior to termination of the assays on day 4 following exposure to the anticancer agents. Each test combination of cells, antisense ODN and anti-cancer agent was run in quadruplicate replicates.

The test system of data set [6] is DU-145 prostate cancer cells. As to the kind of experiment: sensitization of MRP-expressing prostate cancer cells to drug (Table XVII). The class given is cell-based, human.

With “H(1)junD: junD antisense ODN, GTCGGCGTGG TGGTGA (antisense GTCGGCGTGGTGGTGA; DNA, backbone and methylation of C not given here; listed as Homo sapiens)”, the “drug sensitization of drug-sensitive lines” value in data set [1] was “minimal sensitizing potential”. The “Fold increase in Drug Sensitivity” value is 3 in data set [1] (8226/sensitive parent cells, versus media control); 500 in data set [5]; 19 in data set [6] (DU-145 cells, versus media control). The “anticancer effects on solid tumors” value in data set [2] was “anticancer effects”. Also, the antileukemic effect entry in data set [3] is listed as “as great or a greater antileukemic effect than OL(1)p53”. Also, the “cytotoxic or anticancer growth-inhibitory effect on malignant cell lines” value in data set [4] was “less of a cytotoxic or anticancer growth-inhibitory effect”. The sensitization to vincristine result in data set [5] is “sensitize”. For the same substance, the “sensitization to chemotherapeutic agent” value in data set [6] (DU-145, express MRP and not P-glycoprotein) is listed as “sensitize”.

For “H(2)junD: junD antisense ODN, GCTCGTCGGC GTGGTGGTGA (antisense GCTCGTCGGCGTGGTGGTGA; DNA, backbone and methylation of C not given here; listed as Homo sapiens)”, the “cytotoxic or anticancer growth-inhibitory effect on malignant cell lines” value in data set [4] is listed as “less of a cytotoxic or anticancer growth-inhibitory effect”. In addition, in data set [5], the “Fold increase in Drug Sensitivity” value is 1091 and the sensitization to vincristine entry is “sensitize”.
